# In US20250360132A1, “METHODS OF ADMINISTERING MYOSIN INHIBITORS” (MYOKARDIA, INC., priority 2022, published 2025):
# Legend:
# [1] = biological target: CYP1A2 (Homo sapiens, UniProt P05177); experiment: In vitro CYP inhibition; assay type: in vitro ADME
# Text: (§1) Mavacamten is a CYP2B6 inducer.
# [2] = biological target: CYP3A4 (Homo sapiens, UniProt P08684); experiment: In vitro CYP inhibition; assay type: in vitro ADME; conditions: at clinically relevant concentrations
# Text: as §1
# [3] = biological target: P-gp (Homo sapiens, UniProt P08183); experiment: In vitro transporter inhibition; assay type: in vitro ADME
# [4] = system: healthy volunteers; experiment: Cardiac electrophysiology (QTc) in healthy volunteers; assay type: in vivo, human
# Text: The mechanism of the QT prolongation effect is not known.
# [5] = system: CYP2B6; experiment: In vitro CYP induction; assay type: in vitro ADME
# Text: as §1
# [6] = biological target: CYP2C9 (Homo sapiens, UniProt P11712); experiment: Metabolism, contribution of CYP2C9; assay type: in vitro ADME
# Text: (§2) Mavacamten is extensively metabolized, primarily through CYP2C19 (74%), CYP3A4 (18%), and CYP2C9 (8%).
# (§3) Statement of Purpose: Mavacamten is a first-in-class, selective, allosteric, and reversible cardiac myosin inhibitor in development for the treatment of adults with symptomatic obstructive hypertrophic cardiomyopathy. Mavacamten is hepatically metabolized predominantly via CYP2C19 (74%), CYP3A4 (18%) and CYP2C9 (8%). A previously developed fit-for-purpose physiologically based pharmacokinetic (PBPK) model was applied to explore the induction effects of a strong CYP3A4/CYP2C19 inducer-rifampin, as well as a strong CYP3A4 inducer-carbamazepine, on mavacamten exposures.
# [7] = biological target: CYP2C19 (Homo sapiens, UniProt P33261); experiment: Metabolism, contribution of CYP2C19; assay type: in vitro ADME
# Text: as §2, §3
# [8] = system: virtual oHCM patients; experiment: Exposure-response simulation of titration Regimen #2; set-up: species or system human; conditions: CYP2C19 phenotype distribution in the EU population
# Text: Mavacamten has substantial pharmacokinetic (PK) variability, the largest contributor being CYP2C19 phenotype. Beyond phenotype, and after incorporation of all PK covariates, a moderate inter-individual variability remains. As a result of the PK variability, there is a need to achieve an ideal balance of reducing the Valsalva left ventricular outflow tract gradient (VLVOT) while maintaining the patient's left ventricular ejection fraction (LVEF), and an echocardiogram (ECHO) based titration regimen was developed. Modeling and simulation analyses have been undertaken to further evaluate dose titration by CYP2C19 phenotype.
# In addition, an exposure-response simulation-based approach was utilized to investigate multiple titration regimens using an equal distribution of CYP2C19 phenotype to allow for additional sensitivity in assessing the performance of the titration regimen for each phenotype. The evaluations included genotype specific dosing and titration, adjusted starting dose of 2.5 mg and additional monitoring intervals. For each posology investigated, the key objectives remained consistent: to limit the percent (%) of simulated patients experiencing LVEF <50%, while gradually up-titrating them to achieve VLVOT <30 mmHg. This Example outlines the evaluation of 3 titration regimens, described below.
# The methods used to conduct the simulations are described as follows. […]
# [9] = system: patients with HCM and healthy subjects; experiment: Human experience of overdose / high doses; assay type: in vivo
# [10] = system: organic anion transporters (OATs); experiment: In vitro transporter inhibition; assay type: in vitro ADME
# [11] = Clinical pharmacokinetics; assay type: in vivo, human
# Experimental: At the same dose level of MAVACAMTEN, 170% higher exposures of mavacamten are observed in patients with HCM compared to healthy subjects.
# The Tmax was increased by 4 hours.
# Mavacamten has a variable terminal t1/2 that depends on CYP2C19 metabolic status. […] Drug accumulation occurs with an accumulation ratio of about 2-fold for Cmax and about 7-fold for AUC in CYP2C19 NMs. The accumulation depends on the metabolism status for CYP2C19 with the largest accumulation observed in CYP2C19 PMs. At steady-state, the peak-to-trough plasma concentration ratio with once daily dosing is approximately 1.5.
# Following a single 25 mg dose of radiolabeled mavacamten, 7% of the dose was recovered in feces (1% unchanged) and 85% in urine (3% unchanged).
# The effects of severe (eGFR: 15 to 30 mL/min/1.73 m^2) renal impairment and kidney failure (eGFR: <15 mL/min/1.73 m^2; including patients on dialysis) are unknown.
# Sequence of CYP2C19 (P33261 whole entry): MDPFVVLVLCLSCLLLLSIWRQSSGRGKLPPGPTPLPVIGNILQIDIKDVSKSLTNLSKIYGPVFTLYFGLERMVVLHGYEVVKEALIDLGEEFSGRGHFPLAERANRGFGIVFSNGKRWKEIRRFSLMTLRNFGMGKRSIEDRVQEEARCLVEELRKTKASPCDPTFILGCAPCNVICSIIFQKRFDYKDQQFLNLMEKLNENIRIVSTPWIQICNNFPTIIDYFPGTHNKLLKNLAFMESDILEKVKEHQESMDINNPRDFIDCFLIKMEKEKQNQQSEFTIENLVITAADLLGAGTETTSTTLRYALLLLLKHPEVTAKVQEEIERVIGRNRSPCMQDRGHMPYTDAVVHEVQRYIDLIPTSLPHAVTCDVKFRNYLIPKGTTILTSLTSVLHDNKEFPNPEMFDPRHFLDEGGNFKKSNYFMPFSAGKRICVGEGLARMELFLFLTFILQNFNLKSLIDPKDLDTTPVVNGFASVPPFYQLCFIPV
# Sequence of P-gp (P08183 whole entry): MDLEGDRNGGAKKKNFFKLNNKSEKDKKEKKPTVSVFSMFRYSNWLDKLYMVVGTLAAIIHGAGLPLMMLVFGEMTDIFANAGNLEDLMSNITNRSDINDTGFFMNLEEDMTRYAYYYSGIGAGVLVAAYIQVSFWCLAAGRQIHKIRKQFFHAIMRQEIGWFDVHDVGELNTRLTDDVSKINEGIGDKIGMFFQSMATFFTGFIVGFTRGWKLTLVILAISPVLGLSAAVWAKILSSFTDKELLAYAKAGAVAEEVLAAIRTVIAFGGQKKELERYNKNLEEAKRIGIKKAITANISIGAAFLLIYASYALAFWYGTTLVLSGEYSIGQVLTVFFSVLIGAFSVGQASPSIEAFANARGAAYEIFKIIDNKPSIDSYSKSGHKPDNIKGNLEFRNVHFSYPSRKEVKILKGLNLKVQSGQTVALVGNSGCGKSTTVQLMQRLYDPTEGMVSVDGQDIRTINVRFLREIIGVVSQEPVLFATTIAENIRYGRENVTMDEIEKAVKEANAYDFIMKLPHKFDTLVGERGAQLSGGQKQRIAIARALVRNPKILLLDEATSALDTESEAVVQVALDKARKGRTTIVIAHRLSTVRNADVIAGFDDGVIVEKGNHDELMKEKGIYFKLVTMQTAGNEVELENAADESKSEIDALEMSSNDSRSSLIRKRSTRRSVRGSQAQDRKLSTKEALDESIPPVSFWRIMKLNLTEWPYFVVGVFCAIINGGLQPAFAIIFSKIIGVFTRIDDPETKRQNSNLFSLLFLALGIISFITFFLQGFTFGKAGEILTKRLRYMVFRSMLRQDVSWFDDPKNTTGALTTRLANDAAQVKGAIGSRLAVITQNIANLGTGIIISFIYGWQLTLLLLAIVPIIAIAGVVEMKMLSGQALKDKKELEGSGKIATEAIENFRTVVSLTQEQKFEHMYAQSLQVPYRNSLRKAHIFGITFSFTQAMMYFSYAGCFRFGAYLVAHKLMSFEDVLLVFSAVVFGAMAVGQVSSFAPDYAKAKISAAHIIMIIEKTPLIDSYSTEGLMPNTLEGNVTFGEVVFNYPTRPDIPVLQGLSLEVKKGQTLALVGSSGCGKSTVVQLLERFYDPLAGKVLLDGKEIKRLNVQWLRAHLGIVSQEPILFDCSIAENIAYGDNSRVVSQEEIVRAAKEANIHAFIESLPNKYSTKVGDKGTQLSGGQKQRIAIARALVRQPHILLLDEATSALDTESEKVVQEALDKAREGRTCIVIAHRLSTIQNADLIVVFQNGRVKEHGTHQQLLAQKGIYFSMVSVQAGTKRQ
# Sequence of CYP1A2 (P05177 whole entry): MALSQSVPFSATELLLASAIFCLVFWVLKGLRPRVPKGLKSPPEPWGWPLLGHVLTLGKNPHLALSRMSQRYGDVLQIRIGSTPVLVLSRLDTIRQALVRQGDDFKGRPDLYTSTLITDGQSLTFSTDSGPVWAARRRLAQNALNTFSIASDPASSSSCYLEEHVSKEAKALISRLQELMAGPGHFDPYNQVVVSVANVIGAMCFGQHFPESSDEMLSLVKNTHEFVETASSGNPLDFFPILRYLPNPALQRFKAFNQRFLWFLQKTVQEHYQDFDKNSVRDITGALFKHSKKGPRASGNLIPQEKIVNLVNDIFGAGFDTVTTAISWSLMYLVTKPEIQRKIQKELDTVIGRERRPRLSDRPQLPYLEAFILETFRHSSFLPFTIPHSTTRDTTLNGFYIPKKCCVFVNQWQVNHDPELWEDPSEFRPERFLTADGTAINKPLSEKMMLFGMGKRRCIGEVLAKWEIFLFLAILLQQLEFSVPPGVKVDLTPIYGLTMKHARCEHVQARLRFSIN
# Sequence of CYP2C9 (P11712 whole entry): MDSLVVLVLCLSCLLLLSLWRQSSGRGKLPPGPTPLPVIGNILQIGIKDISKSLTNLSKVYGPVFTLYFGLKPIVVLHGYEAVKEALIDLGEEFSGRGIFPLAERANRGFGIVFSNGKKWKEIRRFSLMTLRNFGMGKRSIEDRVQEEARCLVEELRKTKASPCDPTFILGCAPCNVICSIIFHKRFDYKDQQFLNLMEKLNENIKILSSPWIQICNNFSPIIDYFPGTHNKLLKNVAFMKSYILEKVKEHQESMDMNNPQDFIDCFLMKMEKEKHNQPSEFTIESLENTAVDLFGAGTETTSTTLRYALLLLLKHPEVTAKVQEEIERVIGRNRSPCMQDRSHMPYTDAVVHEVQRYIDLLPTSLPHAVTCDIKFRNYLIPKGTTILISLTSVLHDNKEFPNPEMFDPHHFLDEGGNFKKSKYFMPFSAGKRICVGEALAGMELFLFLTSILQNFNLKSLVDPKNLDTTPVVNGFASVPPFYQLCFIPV
# Sequence of CYP3A4 (P08684 whole entry): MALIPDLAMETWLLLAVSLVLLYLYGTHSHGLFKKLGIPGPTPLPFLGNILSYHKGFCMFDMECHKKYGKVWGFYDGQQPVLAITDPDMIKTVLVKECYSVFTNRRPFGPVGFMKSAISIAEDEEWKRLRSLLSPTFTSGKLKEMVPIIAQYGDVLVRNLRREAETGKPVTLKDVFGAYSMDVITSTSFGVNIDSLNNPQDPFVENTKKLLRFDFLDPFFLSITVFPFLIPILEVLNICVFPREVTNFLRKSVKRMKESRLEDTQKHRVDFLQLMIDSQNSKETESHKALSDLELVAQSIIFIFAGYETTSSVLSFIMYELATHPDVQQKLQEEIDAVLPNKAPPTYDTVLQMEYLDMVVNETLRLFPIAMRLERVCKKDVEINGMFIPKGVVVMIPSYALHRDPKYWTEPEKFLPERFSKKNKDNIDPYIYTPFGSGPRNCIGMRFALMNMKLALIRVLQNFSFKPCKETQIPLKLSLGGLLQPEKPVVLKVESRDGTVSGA
smiles,measurement,setting,value
"CC(C)n1c(=O)cc(N[C@@H](C)c2ccccc2)[nH]c1=O [mavacamten, (S)-3-Isopropyl-6-((1-phenylethyl)amino)pyrimidine-2,4(1H,3H)-dione]",Inhibition of CYP1A2,[1],does not inhibit
same,Inhibition of CYP3A4,[2],not an inhibitor
same,Inhibition of P-gp,[3],does not inhibit
same,"QTc interval effect, multiple doses",[4]; doses up to 25 mg once daily,concentration-dependent increase in the QTc interval
same,"QTc interval effect, single-dose studies",[4]; similar exposures,No acute QTc changes
same,Induction of CYP2B6,[5],inducer
same,Metabolism through CYP2C9,[6],8%
same,Metabolism through CYP2C19,[7],74%
same,patients excluded/permanently discontinued overall,[8],< 0.5%
same,participants experiencing 20% or greater reductions in LVEF,"[9]; healthy subjects, 25 mg dose level, up to 25 days",3 of 8
same,Outcome of accidental ingestion,"[9]; infant, three 15 mg capsules",infant death
same,Events after single dose of 144 mg,"[9]; one subject with HCM, subject recovered","serious adverse events including vasovagal reaction, hypotension, and asystole"
same,Inhibition of OATs,[10],does not inhibit
same,Pharmacokinetics in specific populations,"[11]; age 18-82 years, sex, race, ethnicity, mild to moderate renal impairment",No clinically significant differences
same,Effect of food on pharmacokinetics,[11]; high fat meal,No clinically significant differences
same,Dose proportionality of exposure,[11]; multiple once-daily doses of 1 mg to 15 mg,increases generally dose proportionally
same,Higher exposure in patients with HCM compared to healthy subjects,[11]; same dose level,170%
